From patent US4237141A, “Derivatives of α-methyl-β-aminopropiophenone and use thereof” (priority 1977, dated 1980)

test system: not listed separately; assay: Acute toxicity, intraperitoneal injection in mice; settings: mouse, in vivo, ip; intraperitoneal injection to mice; read-out: F: Approx. LD50 value
Protocol: Another experiment was also conducted using mice as an index for the acute toxicity to the whole body.
Approx. LD50 value on intraperitoneal injection for mice was determined.

Row | Structure (SMILES) | LD50 [mg/kg]
1 | CCSc1ccc(C(=O)C(C)CN(CC)CC)cc1 (centres unmarked) [Compound 55] | 200

test system: guinea-pig isolated tracheal smooth muscles; assay: Relaxant action on guinea-pig isolated tracheal chain contracted by histamine; settings: Cavia porcellus; contracted by 10^-4 M histamine; read-out: A: 50% effective amount for the guinea-pig isolated tracheal smooth muscles (50% relaxation)
From the text: (§1) Reference will now be made to pharmacological effects of the compounds according to the present invention.
(§2) (1) Relaxant action on the guinea-pig isolated tracheal smooth muscles and the vasodilating action on the canine anesthetized femoral arterial preparation were employed to compare the pharmacological effects of each of the compounds.

Row | Structure (SMILES) | EC50 [µM]
2 | CC(CN1CCCCC1)C(=O)c1ccc([S+](C)[O-])cc1 (centres unmarked) [Compound 4, 1-(4-methylsulfinylphenyl)-3-piperidino-2-methylpropanone-1] | 300
3 | CC[S+]([O-])c1ccc(C(=O)C(C)CN2CCCCC2)cc1 (centres unmarked) [Compound 10] | 200
4 | CC(CN1CCCCC1)C(=O)c1ccc(S(C)(=O)=O)cc1 (centres unmarked) [Compound 16, 1-(4-methylsulfonylphenyl)-3-piperidino-2-methylpropanone-1] | 60
5 | CCS(=O)(=O)c1ccc(C(=O)C(C)CN2CCCCC2)cc1 (centres unmarked) [Compound 22, 1-(4-ethylsulfonylphenyl)-3-piperidino-2-methylpropanone-1] | 60
6 | CCCC[S+]([O-])c1ccc(C(=O)C(C)CN2CCCCC2)cc1 (centres unmarked) [Compound 28, 1-(4-butylsulfinylphenyl)-3-piperidino-2-methylpropanone-1] | 60
7 | CC(CN1CCCCC1)C(=O)c1ccc(S(=O)(=O)c2ccccc2)cc1 (centres unmarked) [Compound 42, 1-(4-phenylsulfonylphenyl)-3-piperidino-2-methylpropanone-1] | 20
8 | CSc1ccc(C(=O)C(C)CN(C)C)cc1 (centres unmarked) [Compound 48, 1-(4-methylthiophenyl)-3-dimethylamino-2-methylpropanone-1] | 6
9 | CSc1ccc(C(=O)C(C)CN2CCCC2)cc1 (centres unmarked) [Compound 50] | 6
10 | CSc1ccc(C(=O)C(C)CN2CCN(C)CC2)cc1 (centres unmarked) [Compound 53] | 200
11 | CCSc1ccc(C(=O)C(C)CN(CC)CC)cc1 (centres unmarked) [Compound 55] | 60

same assay, conditions: based on reference B/A value 1 for isoproterenol; B from canine femoral artery

Row | Structure (SMILES) | B/A: selectivity to tracheal smooth muscles
12 | CC(CN1CCCCC1)C(=O)c1ccc([S+](C)[O-])cc1 (centres unmarked) [Compound 4, 1-(4-methylsulfinylphenyl)-3-piperidino-2-methylpropanone-1] | 3
13 | CC[S+]([O-])c1ccc(C(=O)C(C)CN2CCCCC2)cc1 (centres unmarked) [Compound 10] | 4
14 | CC(CN1CCCCC1)C(=O)c1ccc(S(C)(=O)=O)cc1 (centres unmarked) [Compound 16, 1-(4-methylsulfonylphenyl)-3-piperidino-2-methylpropanone-1] | 12
15 | CCS(=O)(=O)c1ccc(C(=O)C(C)CN2CCCCC2)cc1 (centres unmarked) [Compound 22, 1-(4-ethylsulfonylphenyl)-3-piperidino-2-methylpropanone-1] | 9
16 | CCCC[S+]([O-])c1ccc(C(=O)C(C)CN2CCCCC2)cc1 (centres unmarked) [Compound 28, 1-(4-butylsulfinylphenyl)-3-piperidino-2-methylpropanone-1] | 8
17 | CC(CN1CCCCC1)C(=O)c1ccc(S(=O)(=O)c2ccccc2)cc1 (centres unmarked) [Compound 42, 1-(4-phenylsulfonylphenyl)-3-piperidino-2-methylpropanone-1] | 9
18 | CSc1ccc(C(=O)C(C)CN(C)C)cc1 (centres unmarked) [Compound 48, 1-(4-methylthiophenyl)-3-dimethylamino-2-methylpropanone-1] | 17
19 | CSc1ccc(C(=O)C(C)CN2CCCC2)cc1 (centres unmarked) [Compound 50] | 7
20 | CSc1ccc(C(=O)C(C)CN2CCN(C)CC2)cc1 (centres unmarked) [Compound 53] | 2
21 | CCSc1ccc(C(=O)C(C)CN(CC)CC)cc1 (centres unmarked) [Compound 55] | 5

test system: β-adrenoceptor; assay: Relaxant action on guinea-pig isolated trachea in the presence of propranolol (β-adrenoceptor involvement); settings: histamine 10^-4 M; propranolol 2.5×10^-5 M; FIGS. 1-4
From the text: as §2
Histamine (10^-4 M in the bath medium) was applied to the guinea-pig isolated tracheal preparation to contract the muscles, and the effect of the above compounds to inhibit the contraction (%) was plotted along the ordinate on each of the points for concentration which were connected by a solid line into a curve. Then, the dose-response curve for the compound in the presence of propranolol (2.5×10^-5 M) was obtained and plotted in a dotted line.

Row | Structure (SMILES) | difference between dose-response curves without and with propranolol (inhibition of histamine contraction)
22 | CC(CN1CCCCC1)C(=O)c1ccc(S(C)(=O)=O)cc1 (centres unmarked) [Compound 16, 1-(4-methylsulfonylphenyl)-3-piperidino-2-methylpropanone-1] | no substantial difference

test system: canine femoral arterial preparation; assay: Vasodilating action in the canine anesthetized femoral arterial preparation (close arterial injection); type: in vivo; settings: not given
From the text: as §1, §2

Row | Structure (SMILES) | B: dose required for 30 ml/min increase in the perfused-blood flow (vasodilator action) [µg]
23 | CC(CN1CCCCC1)C(=O)c1ccc([S+](C)[O-])cc1 (centres unmarked) [Compound 4, 1-(4-methylsulfinylphenyl)-3-piperidino-2-methylpropanone-1] | 800
24 | CC[S+]([O-])c1ccc(C(=O)C(C)CN2CCCCC2)cc1 (centres unmarked) [Compound 10] | 700
25 | CC(CN1CCCCC1)C(=O)c1ccc(S(C)(=O)=O)cc1 (centres unmarked) [Compound 16, 1-(4-methylsulfonylphenyl)-3-piperidino-2-methylpropanone-1] | 750
26 | CCS(=O)(=O)c1ccc(C(=O)C(C)CN2CCCCC2)cc1 (centres unmarked) [Compound 22, 1-(4-ethylsulfonylphenyl)-3-piperidino-2-methylpropanone-1] | 580
27 | CCCC[S+]([O-])c1ccc(C(=O)C(C)CN2CCCCC2)cc1 (centres unmarked) [Compound 28, 1-(4-butylsulfinylphenyl)-3-piperidino-2-methylpropanone-1] | 460
28 | CC(CN1CCCCC1)C(=O)c1ccc(S(=O)(=O)c2ccccc2)cc1 (centres unmarked) [Compound 42, 1-(4-phenylsulfonylphenyl)-3-piperidino-2-methylpropanone-1] | 175
29 | CSc1ccc(C(=O)C(C)CN(C)C)cc1 (centres unmarked) [Compound 48, 1-(4-methylthiophenyl)-3-dimethylamino-2-methylpropanone-1] | 100
30 | CSc1ccc(C(=O)C(C)CN2CCCC2)cc1 (centres unmarked) [Compound 50] | 43
31 | CSc1ccc(C(=O)C(C)CN2CCN(C)CC2)cc1 (centres unmarked) [Compound 53] | 430
32 | CCSc1ccc(C(=O)C(C)CN(CC)CC)cc1 (centres unmarked) [Compound 55] | 270
